Source: PMC10914731, “Homo-BacPROTAC-induced degradation of ClpC1 as a strategy against drug-resistant mycobacteria” (Nature Communications, 2024)
≈ marks a conversion by molar mass, not a printed value. Where “and” joins values, the source holds several entries; their conditions need not be identical. Equal entries are not always repeated. Where two headings read alike, the source gives them in different places.

How the values were obtained:
[1] = type: in vitro ADME, Rat; conditions: rat, pH 7.4
[2] = biological target: His6-tagged ClpC1-NTD substrate, M. smegmatis ClpC1P1P2 (UniProt A0R574+P9WPC9); assay: biochemical; type: biochemical; conditions: Msm
[3] = type: in vitro ADME, Human; conditions: human, pH 7.4
[4] = biological target: ClpC1-NTD substrate, M. tuberculosis ClpC1P1P2 (Mycobacterium tuberculosis, UniProt P9WPC9); assay: biochemical; type: biochemical; conditions: Mtb
Msm 607 = assay: microbe, parasite or virus in culture; type: cell-based
[5] = system: Mtb H37Rv in THP-1 macrophages; assay: Intracellular MIC assay in THP-1 macrophages; type: cell-based, Mycobacterium tuberculosis; set-up: Emax: unit not given here
[6] = type: in vitro ADME, Rat
Procedure, shortened: (§1)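 Compound (1 µmol/l) was incubated at 37 °C with 0.5 mg/ml liver microsomes in 100 mM Tris-HCl pH 7.5, 6.5 mM MgCl2 and 1 mM NADPH. Reactions were quenched with acetonitrile at several time points and parent remaining quantified by HPLC-MS/MS; first-order half-lives were converted to clearance as %Qh via the well-stirred model.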

[7] = system: M. tuberculosis H37Rv (ATCC 27294); assay: microbe, parasite or virus in culture; type: cell-based
in vitro = conditions: human
Procedure, shortened: (§2)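 Permeability across Caco-2 monolayers was measured in both directions, apical-to-basolateral and basolateral-to-apical, in 10^-6 cm s-1. Efflux ratio = P(B−A)/P(A−B). Intrinsic permeability is the mean of P(A−B) and P(B−A).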

Caco-2 monolayers = assay: in vitro; conditions: human, Caco-2
Procedure, shortened: as §2

Msm 700084 = assay: microbe, parasite or virus in culture; type: cell-based
[8] = Microsomal stability, human; type: in vitro ADME
Procedure, shortened: as §1

[9] = Hepatocyte stability, mice; type: in vitro ADME; conditions: mouse, pH 7.4
Procedure, shortened: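 Cryopreserved mouse hepatocytes (about 1 million cells/mL, pH 7.4, 50% species serum) incubated with 1 µM compound, DMSO <0.05%, at 37 °C for up to 6 h, sampled at 6 time points. Parent remaining measured by HPLC-MS/MS; half-life converted via well-stirred liver model to clearance as % Qh.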

[10] = biological target: ClpC1 NTD protein (M. tuberculosis) (Mycobacterium tuberculosis, UniProt P9WPC9); assay: biochemical; type: binding; conditions: SPR
[11] = type: in vitro ADME, Mice; conditions: clearance in microsomes
Procedure, shortened: as §1

[12] = mean of the measurements, read-out: 1-Dmax, Mean
[13] = mean of the measurements, read-out: DC50, Mean

Chain of His6-tagged ClpC1-NTD substrate, M. smegmatis ClpC1P1P2 (P9WPC9 1-156, looked up, natural form): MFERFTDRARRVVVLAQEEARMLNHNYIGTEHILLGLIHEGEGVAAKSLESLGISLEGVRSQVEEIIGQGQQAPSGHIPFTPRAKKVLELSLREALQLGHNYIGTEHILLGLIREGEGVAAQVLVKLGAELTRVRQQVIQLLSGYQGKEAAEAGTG
Chain of His6-tagged ClpC1-NTD substrate, M. smegmatis ClpC1P1P2 (A0R574 whole entry): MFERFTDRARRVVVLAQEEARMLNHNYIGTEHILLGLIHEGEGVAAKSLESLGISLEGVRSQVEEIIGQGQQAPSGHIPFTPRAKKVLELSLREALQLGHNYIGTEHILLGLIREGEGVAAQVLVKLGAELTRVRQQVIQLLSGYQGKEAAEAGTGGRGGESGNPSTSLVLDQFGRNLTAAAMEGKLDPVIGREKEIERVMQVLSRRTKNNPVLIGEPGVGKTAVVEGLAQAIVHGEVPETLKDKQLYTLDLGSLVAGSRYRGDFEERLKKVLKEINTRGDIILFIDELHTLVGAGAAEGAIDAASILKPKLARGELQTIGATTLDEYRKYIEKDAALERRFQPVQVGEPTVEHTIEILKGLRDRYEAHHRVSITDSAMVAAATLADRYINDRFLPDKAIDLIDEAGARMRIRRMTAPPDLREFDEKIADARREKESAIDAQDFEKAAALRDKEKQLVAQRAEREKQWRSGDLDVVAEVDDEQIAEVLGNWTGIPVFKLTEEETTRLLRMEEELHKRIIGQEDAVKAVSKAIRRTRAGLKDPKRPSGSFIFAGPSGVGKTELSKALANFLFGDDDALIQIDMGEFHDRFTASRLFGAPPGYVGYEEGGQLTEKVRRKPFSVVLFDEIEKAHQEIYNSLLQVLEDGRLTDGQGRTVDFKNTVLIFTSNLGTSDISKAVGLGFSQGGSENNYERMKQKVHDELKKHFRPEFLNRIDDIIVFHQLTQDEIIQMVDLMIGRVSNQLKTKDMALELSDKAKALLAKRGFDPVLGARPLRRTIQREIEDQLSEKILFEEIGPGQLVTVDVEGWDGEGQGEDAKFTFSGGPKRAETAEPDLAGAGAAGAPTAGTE
Chain of ClpC1 NTD protein (M. tuberculosis) (P9WPC9 1-156, looked up, natural form): as the sequence (P9WPC9 1-156, looked up, natural form) above
Chain of ClpC1-NTD substrate, M. tuberculosis ClpC1P1P2 (P9WPC5 whole entry): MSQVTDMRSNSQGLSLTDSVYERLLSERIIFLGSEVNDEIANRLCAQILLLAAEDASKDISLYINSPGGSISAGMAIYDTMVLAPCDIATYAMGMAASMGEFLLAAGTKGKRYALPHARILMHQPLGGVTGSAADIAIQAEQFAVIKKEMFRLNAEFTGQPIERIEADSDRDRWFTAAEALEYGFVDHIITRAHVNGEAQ
Chain of ClpC1-NTD substrate, M. tuberculosis ClpC1P1P2 (P9WPC9 whole entry): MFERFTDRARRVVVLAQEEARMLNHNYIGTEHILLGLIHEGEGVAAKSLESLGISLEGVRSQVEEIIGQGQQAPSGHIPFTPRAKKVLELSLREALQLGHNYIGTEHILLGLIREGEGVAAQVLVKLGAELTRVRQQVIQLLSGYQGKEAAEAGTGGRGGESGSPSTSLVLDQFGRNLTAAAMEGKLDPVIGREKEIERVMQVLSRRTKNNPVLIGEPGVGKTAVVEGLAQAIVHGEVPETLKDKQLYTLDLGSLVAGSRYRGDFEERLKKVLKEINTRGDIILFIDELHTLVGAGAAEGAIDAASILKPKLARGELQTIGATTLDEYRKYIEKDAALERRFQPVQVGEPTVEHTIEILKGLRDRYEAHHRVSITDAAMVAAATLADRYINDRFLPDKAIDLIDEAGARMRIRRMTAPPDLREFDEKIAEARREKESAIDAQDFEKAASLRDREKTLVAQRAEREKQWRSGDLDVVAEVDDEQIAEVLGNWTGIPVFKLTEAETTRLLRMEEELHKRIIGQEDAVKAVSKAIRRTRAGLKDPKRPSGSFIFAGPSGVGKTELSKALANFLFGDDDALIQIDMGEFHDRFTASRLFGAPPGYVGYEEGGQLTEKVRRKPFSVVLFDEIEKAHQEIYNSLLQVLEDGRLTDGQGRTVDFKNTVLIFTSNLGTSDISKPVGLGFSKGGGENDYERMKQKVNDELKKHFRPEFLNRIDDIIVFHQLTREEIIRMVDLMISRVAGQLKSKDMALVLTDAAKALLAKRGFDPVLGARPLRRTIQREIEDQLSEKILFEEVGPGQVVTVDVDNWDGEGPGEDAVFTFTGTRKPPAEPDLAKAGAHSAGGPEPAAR
Chain of ClpC1-NTD substrate, M. tuberculosis ClpC1P1P2 (P9WPC3 whole entry, further chain): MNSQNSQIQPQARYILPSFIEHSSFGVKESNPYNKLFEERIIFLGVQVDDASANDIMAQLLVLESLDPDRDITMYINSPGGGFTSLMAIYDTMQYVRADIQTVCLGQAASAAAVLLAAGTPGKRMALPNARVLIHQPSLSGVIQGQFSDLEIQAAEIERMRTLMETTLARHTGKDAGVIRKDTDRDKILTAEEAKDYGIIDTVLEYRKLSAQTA

CO[C@H](c1ccccc1)[C@@H]1NC(=O)[C@H](C)NC(=O)[C@H](C[C@@H](C)CO)N(C)C(=O)[C@H](Cc2cn(C)c3ccccc23)NC(=O)[C@H](Cc2cn(CCOCCOCCn3cc(C[C@@H]4NC(=O)[C@H](CC(C)C)N(C)C(=O)[C@H](C(C)C)NC(=O)[C@H]([C@H](OC)c5ccccc5)NC(=O)[C@H](C)NC(=O)[C@H](C[C@@H](C)CO)N(C)C(=O)[C@H](Cc5cn(C)c6ccccc56)NC4=O)nn3)nn2)NC(=O)[C@H](CC(C)C)N(C)C(=O)[C@H](C(C)C)NC1=O [Compound 11]
Hepatocyte Rat [1]: 6 %Qh | Hepatocyte Stability Rat QH [1]: 6.192% | 1-Dmax, single measurements ([2]; Measurement 1-6): 84.8% and 87.6% and 91.1% | 1-Dmax (percent substrate remaining at maximal degradation) ([2]; Measurement 1-6, read-out: 1-Dmax, single measurements): 85.6% | DC50 ([2]; Measurement 1-6, read-out: DC50, single measurements): 7400 nM and 6100 nM and 5000 nM and 3900 nM | 1-Dmax (percent substrate remaining at maximal degradation) [2, 12]: 87% | DC50 [2, 13]: 5600 nM | Hepatocyte Human [3]: 12 %Qh | Hepatocyte Stability Human QH [3]: 12.386% | 1-Dmax, single measurements ([4]; Measurement 1-4): 69.6% | 1-Dmax (percent substrate remaining at maximal degradation) ([4]; Measurement 1-4, read-out: 1-Dmax, single measurements): 77.4% | DC50 ([4]; Measurement 1-4, read-out: DC50, single measurements): 4700 nM and 5400 nM | 1-Dmax (percent substrate remaining at maximal degradation) [4, 12]: 74% | DC50 [4, 13]: 5100 nM | MIC (Msm 607; Mycolicibacterium smegmatis, 607, read-out: MIC Msm 607): 1.6 µM (≈ 3.24 µg/mL) | MIC (Msm 607; Mycolicibacterium smegmatis, 607, read-out: Msm 607 MIC, single determinations): 1.56 µM (≈ 3.16 µg/mL) | Emax [5]: 0.51 | Microsomal Stability Rat QH ([6]; Rat): <23.1% | Microsomal Stability Rat ([6]; clearance in microsomes): < 23 %Qh | MIC ([7]; Mycobacterium tuberculosis, M. tuberculosis H37Rv strain, read-out: MIC Mtb H37Rv Mean ± SD): 0.1 µM (≈ 0.203 µg/mL) | MIC ([7]; Mycobacterium tuberculosis, Mtb H37Rv (Supplementary Table 2), read-out: MIC Mtb): 0.1 µM (≈ 0.203 µg/mL) | MIC ([7]; Mycobacterium tuberculosis, individual measurements (source data), read-out: Mtb MIC): 0.097 µM (≈ 0.197 µg/mL) | MIC ([7]; Mycobacterium tuberculosis, single determinations, read-out: Mtb MIC): 0.097 µM (≈ 0.197 µg/mL) | MIC ([7]; individual measurements (source data), read-out: Mtb MIC): 0.097 µM (≈ 0.197 µg/mL) | efflux ratio (in vitro; Caco-2): 2.6 | Papp B→A (in vitro; Caco-2, CACO permeability PEBA): 0.36 ×10⁻⁶ cm/s | Papp A→B (in vitro; Caco-2, Caco-2 permeability P (A-B)): 1.6 ×10⁻⁶ cm/s | Papp B→A (in vitro; Caco-2, Caco-2 permeability P (B-A)): 4.2 ×10⁻⁶ cm/s | Caco-2 Int. Perm (Caco-2 monolayers): 2.9 | MIC (Msm 700084; Mycolicibacterium smegmatis, 700084, single determinations, read-out: Msm 700084 MIC): 1.56 µM (≈ 3.16 µg/mL) | MIC (Msm 700084; Mycolicibacterium smegmatis, 700084, read-out: MIC Msm 700084): 1.6 µM (≈ 3.24 µg/mL) | Microsomal Stability Human QH ([8]; Human): <24.4% | Microsomal Stability Human ([8]; clearance in microsomes): < 24 %Qh | Hepatocyte Mice [9]: 15 %Qh | Kd ([10]; individual measurements (source data), read-out: KD ClpC1-NTD): 0.306 nM and 0.313 nM and 0.72 nM and 0.499 nM and 0.412 nM and 0.253 nM and 0.262 nM | koff ClpC1-NTD ([10]; single independent measurements): 0.0009 s⁻¹ and 0.0004 s⁻¹ | Kd ([10]; read-out: ClpC1-NTD KD Mean ± SD): 0.4 ± 0.2 nM | Microsomal Stability Mice [11]: < 24 %Qh
